Data as given in US20100197650A1, “COMPOSITIONS AND METHODS OF TREATMENT COMPRISING CEFTAROLINE” (FOREST LABORATORIES HOLDINGS LTD., priority 2008, published 2010).
Converted amounts (≈) assume the structure as drawn.

Columns and labels:
Enterococcus faecalis = test: MIC, broth microdilution (Example 1); format: cell-based
Procedure: (§1) Stock solutions of all antibacterial agents were prepared at 80-fold (80×) the final target concentration in the appropriate solvent and the solution was allowed to stand for 60 minutes. All antibacterial agents were in solution under these conditions. The final drug concentrations in the FIC assay plates were set to bracket the MIC value of each agent for each test organism, unless the strain was totally resistant to the test agent.
(§2) The test organisms were originally received from clinical sources, or from the American Type Culture Collection. Upon receipt, the isolates were streaked onto the appropriate growth medium: Chocolate Agar for H. influenzae, Tryptic Soy Agar II (Becton Dickinson, Sparks, Md.) supplemented with 5% defibrinated sheep blood for streptococci, and unsupplemented Tryptic Soy Agar II for all other organisms. Colonies were harvested from these plates and a cell suspension was prepared in Tryptic Soy Broth (Becton Dickinson) containing cryoprotectant. Aliquots were then frozen at −80° C. On the day prior to assay, the frozen seeds of the organisms to be tested in that session were thawed and streaked for isolation onto the appropriate agar medium plates and incubated overnight at 35° C.
(§3) The test medium for H. influenzae was Haemophilus Test Medium. Streptococci were tested in Mueller Hinton II Broth (Becton Dickinson; Lot 6235472) supplemented with 2% lysed horse blood (Cleveland Scientific, Bath, Ohio; Lot H88621). All other organisms were tested in Mueller Hinton II Broth (Becton Dickinson, Lot 6235472). The broth was prepared at 1.05× normal weight/volume to offset the 5% volume of the drugs in the final test plates.
(§4) In order to select the proper test concentrations for each drug combination, minimal inhibitory concentration (MIC) values were first determined using the broth microdilution method previously described (Clinical and Laboratory Standards Institute. Methods for Dilution Antimicrobial Susceptibility Tests for Bacteria That Grow Aerobically; Approved Standard—Seventh Edition. Clinical and Laboratory Standards Institute document M7-A7 [ISBN 1-56238-587-9]. Clinical and Laboratory Standards Institute, 940 West Valley Road, Suite 1400, Wayne, Pa. 19087-1898 USA, 2006).
(§5) The wells of standard 96-well microdilution plates (Falcon 3918) were filled with 150 μL of 100% DMSO using the Multidrop 384. These plates were used to prepare the drug “mother plates” which provided the serial drug dilutions for the drug combination plates. The Biomek 2000 was used to transfer 150 μl of each stock solution (80×) from the wells in Column 1 of a deep well plate to the corresponding wells in Column 1 of the mother plate and to make seven 2-fold serial dilutions. Two mother plates, one for each drug, were combined to form a “checkerboard” pattern by transfer of equal volumes (using a multi-channel pipette) to the drug combination plate. Row H and Column 8 each contained serial dilutions of one of the agents alone for determination of the MIC.
(§6) Plates were stacked 3 high, covered with a lid on the top plate, placed in plastic bags, and incubated at 35° C. for approximately 20 hours. Following incubation, the microplates were removed from the incubator and viewed from the bottom using a ScienceWare plate viewer. Prepared reading sheets were marked for the MIC of drug 1 (row H), the MIC of drug 2 (column 8) and the wells of the growth-no growth interface.

Streptococcus pneumoniae = test: MIC, broth microdilution (Example 1); format: cell-based; details: Streptococcus pneumoniae
Procedure: as §1, §2, §3, §4, §5, §6

Staphylococcus aureus = test: MIC, broth microdilution (Example 1); format: cell-based; details: Staphylococcus aureus
Procedure: as §1, §2, §3, §4, §5, §6

HA-MRSA [1] = test: Susceptibility testing MIC/MBC, broth microdilution (Example 3); format: cell-based, Staphylococcus aureus
Procedure: Two hundred clinical HA-MRSA isolates, harboring the SCCmecIV type, were evaluated for susceptibility testing. […] Four strains, including 1 hVISA and 1 VISA, characterized by population analysis profile and Macro Etest were selected for time-kill analysis.
Trypose soy agar (TSA; Difco, Detroit, Mich.) was used for colony counting.
Minimum inhibitory concentrations (MIC) and minimum bactericidal concentrations (MBC) were determined by broth microdilution for all antimicrobials, according to the Clinical and Laboratory Standards Institute (CLSI) guidelines (Clinical and Laboratory Standards Institute. 2006. Methods for Dilution Antimicrobial Susceptibility Tests for Bacteria That Grow Aerobically; Approved Standard. 7th ed. Wayne, Pa.: CLSI). MBC values were determined by plating of aliquots of 5 μL from clear wells onto TSA. All susceptibility testing were performed in duplicate.

HA-MRSA [2] = test: Time-kill curves at ¼ and ½ MIC (Example 3); format: cell-based, Staphylococcus aureus; details: drug alone at ½ MIC, the 4 tested HA-MRSA strains
Procedure: Four randomly selected HA-MRSA isolates were evaluated in time-kill experiments, using a starting inoculum at ˜10^6 CFU/mL and antimicrobials at ¼ and ½ MIC. Regimens included ceftaroline, vancomycin and tobramycin alone or combination of tobramycin with ceftaroline or vancomycin. […] Additivity, antagonism and indifference were defined as <2 but >1 log10 kill, >1 log10 growth and ±1 log kill, respectively.
Differences between regimens were analyzed by T-test or ANOVA with Tukey's post hoc test. […] A P value <0.05 was considered significant.

[3] = Staphylococcus aureus, MRSA / VISA, HA-MRSA isolate R2303 (VISA)
[4] = Staphylococcus aureus, MRSA, HA-MRSA isolate R3804
[5] = Staphylococcus aureus, MRSA, HA-MRSA isolate R3875 (hVISA)
[6] = Staphylococcus aureus, MRSA, HA-MRSA isolate R4039

For `CN[C@H](CC(C)C)C(=O)N[C@H]1C(=O)N[C@@H](CC(N)=O)C(=O)N[C@H]2C(=O)N[C@H]3C(=O)N[C@H](C(=O)N[C@H](C(=O)O)c4cc(O)cc(O)c4-c4cc3ccc4O)[C@H](O)c3ccc(c(Cl)c3)Oc3cc2cc(c3O[C@@H]2O[C@H](CO)[C@@H](O)[C@H](O)[C@H]2O[C@H]2C[C@](C)(N)[C@H](O)[C@H](C)O2)Oc2ccc(cc2Cl)[C@H]1O` [Vancomycin], the MIC (Enterococcus faecalis; E. faecalis 0796 (VSE)) was 2 µg/mL, the MIC (Enterococcus faecalis; Enterococcus faecalis) was 2 µg/mL and the MIC (Streptococcus pneumoniae; PRSP, S. pneumoniae 0880 (PRSP)) was 0.5 µg/mL. It also gave an MIC (Streptococcus pneumoniae; PRSP, S. pneumoniae 0884 (PRSP)) of 0.5 µg/mL, an MIC (Streptococcus pneumoniae; S. pneumoniae 0866 (PSSP)) of 0.25 µg/mL and an MIC (Streptococcus pneumoniae; S. pneumoniae 0869 (PSSP)) of 0.5 µg/mL. It also gave an MIC (Staphylococcus aureus; MRSA, S. aureus 0765 (MRSA)) of 2 µg/mL, an MIC (Staphylococcus aureus; MRSA, S. aureus 2053 (MRSA)) of 1 µg/mL and an MIC (Staphylococcus aureus; MSSA, S. aureus 0753 (MSSA)) of 1 µg/mL. For the same compound, the MIC (Staphylococcus aureus; MSSA, S. aureus 2063 (MSSA)) was 1 µg/mL, the “% of Isolates with MBC 0.25 μg/mL” value (HA-MRSA [1]; 200 HA-MRSA isolates) was 0.5% and the “% of Isolates with MBC 0.5 μg/mL” value (HA-MRSA [1]; 200 HA-MRSA isolates) was 6%. For the same compound, the “% of Isolates with MBC 1 μg/mL” value (HA-MRSA [1]; 200 HA-MRSA isolates) was 52.5%, the “% of Isolates with MBC 2 μg/mL” value (HA-MRSA [1]; 200 HA-MRSA isolates) was 36.5% and the “% of Isolates with MBC ≧4 μg/mL” value (HA-MRSA [1]; 200 HA-MRSA isolates) was 4.5%. The “% of Isolates with MIC 0.25 μg/mL” value (HA-MRSA [1]; 200 HA-MRSA isolates) was 1.5%, the “% of Isolates with MIC 0.5 μg/mL” value (HA-MRSA [1]; 200 HA-MRSA isolates) was 14.5% and the “% of Isolates with MIC 1 μg/mL” value (HA-MRSA [1]; 200 HA-MRSA isolates) was 62%. For the same compound, the “% of Isolates with MIC 2 μg/mL” value (HA-MRSA [1]; 200 HA-MRSA isolates) was 21.5%, the “% of Isolates with MIC ≧4 μg/mL” value (HA-MRSA [1]; 200 HA-MRSA isolates) was 0.5% and the “MBC range” value (HA-MRSA [1]; 200 HA-MRSA isolates) was 0.25 to 4 µg/mL. The “MIC range” value (HA-MRSA [1]; 200 HA-MRSA isolates) was 0.25 to 4 µg/mL, the MIC50 (HA-MRSA [1]; Staphylococcus aureus, MRSA) was 1 µg/mL (≈ 0.69 µM) and the MIC90 (HA-MRSA [1]; Staphylococcus aureus, MRSA) was 2 µg/mL (≈ 1.38 µM). It also gave an MBC (HA-MRSA [1]; [3]) of 8 µg/mL (≈ 5.52 µM), an MIC (HA-MRSA [1]; [3]) of 4 µg/mL (≈ 2.76 µM) and an MBC (HA-MRSA [1]; [4]) of 1 µg/mL (≈ 0.69 µM). The MIC (HA-MRSA [1]; [4]) was 0.5 µg/mL (≈ 0.345 µM), the MBC (HA-MRSA [1]; [5]) was 2 µg/mL (≈ 1.38 µM) and the MIC (HA-MRSA [1]; [5]) was 2 µg/mL (≈ 1.38 µM). The MBC (HA-MRSA [1]; [6]) was 1 µg/mL (≈ 0.69 µM), the MIC (HA-MRSA [1]; [6]) was 1 µg/mL (≈ 0.69 µM) and the bactericidal activity (HA-MRSA [2]) was “did not display bactericidal activity”.
